In ChEMBL document CHEMBL1287647, “Synthesis and characterization of a iodine-125-labeled pyrrolo[1,2-a]thieno[3,2-e]pyrazine and evaluation as a potential 5-HT4R SPECT tracer” (Eur J Med Chem, 2010):

Columns and labels:
[1] = molecular target: 5-hydroxytryptamine receptor 4 (Cavia porcellus, UniProt O70528); test: Displacement of [3H]GR113808 from 5HT4 receptor in guinea pig striatal membranes; assay type: cell membranes, Striatum, Membrane
[2] = molecular target: 5-hydroxytryptamine receptor 4 (Cavia porcellus) (UniProt O70528); test: Displacement of [3H]GR113808 from 5HT4 receptor in guinea pig striatal membranes at 1 uM; assay type: cell membranes; conditions: Striatum, Membrane
5-hydroxytryptamine receptor 4 (Cavia porcellus), sequence (O70528 whole entry): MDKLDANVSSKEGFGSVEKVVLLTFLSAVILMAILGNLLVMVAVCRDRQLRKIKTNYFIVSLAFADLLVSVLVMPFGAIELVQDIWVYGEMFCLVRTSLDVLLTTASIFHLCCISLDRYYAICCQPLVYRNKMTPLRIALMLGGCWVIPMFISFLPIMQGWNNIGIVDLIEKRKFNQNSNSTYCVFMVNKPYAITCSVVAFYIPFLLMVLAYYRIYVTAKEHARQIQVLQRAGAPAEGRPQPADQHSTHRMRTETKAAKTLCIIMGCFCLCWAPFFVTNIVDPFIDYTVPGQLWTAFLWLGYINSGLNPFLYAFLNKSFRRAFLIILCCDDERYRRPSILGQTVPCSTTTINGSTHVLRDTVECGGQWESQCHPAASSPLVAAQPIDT

5-hydroxytryptamine receptor 4, sequence (O70528 whole entry): as above

Ki [1] [nM]	inhibition [2] [%]	SMILES
129	87	Cc1csc2nc(OCC3CCN(C/C=C/I)CC3)c3cccn3c12
891	85	C#CCN1CCC(COc2nc3scc(C)c3n3cccc23)CC1
